The values below come from ChEMBL document CHEMBL1201862, “PubChem BioAssay data set” (2004).

Activity calls are given as the source filed them. A value given as a limit tells only on which side of the number the result lay.

Test [1] has as its target Glyceraldehyde-3-phosphate dehydrogenase (Homo sapiens, UniProt P04406).
The target in test [2] is T1, Leucine aminopeptidase (Plasmodium falciparum 3D7, UniProt Q8IL11).
T1 sequence (Q8IL11 whole entry): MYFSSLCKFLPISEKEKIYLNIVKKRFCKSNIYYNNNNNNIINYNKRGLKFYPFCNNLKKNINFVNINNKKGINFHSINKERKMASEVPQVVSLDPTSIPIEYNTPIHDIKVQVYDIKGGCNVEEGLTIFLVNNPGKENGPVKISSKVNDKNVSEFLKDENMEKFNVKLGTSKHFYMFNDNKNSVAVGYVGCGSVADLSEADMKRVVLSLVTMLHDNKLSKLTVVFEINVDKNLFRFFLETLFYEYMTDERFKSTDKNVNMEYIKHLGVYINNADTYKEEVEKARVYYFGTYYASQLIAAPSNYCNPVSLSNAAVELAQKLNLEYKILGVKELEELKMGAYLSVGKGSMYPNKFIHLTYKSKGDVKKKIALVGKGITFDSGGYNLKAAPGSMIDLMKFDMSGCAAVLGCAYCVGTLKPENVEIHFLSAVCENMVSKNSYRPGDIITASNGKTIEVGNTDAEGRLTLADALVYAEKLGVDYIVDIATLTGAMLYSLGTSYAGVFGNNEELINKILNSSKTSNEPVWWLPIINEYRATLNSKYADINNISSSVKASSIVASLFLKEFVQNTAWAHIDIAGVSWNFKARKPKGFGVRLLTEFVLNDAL
The test can be described thus: P. falciparum M17LAP inhibitors, primary screen, biochemical, fluorogenic H-Leu-NHMec substrate, 1536-well (AID 1619). It counts as functional.

For test [3], the target named is Large T antigen (Simian virus 40, UniProt P03070). It counts as functional, Betapolyomavirus macacae.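 Note: Confirmatory-stage PubChem screen for compounds that inhibit SV40 T antigen.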
The target of test [4] is T2, Alkaline phosphatase, tissue-nonspecific isozyme (Homo sapiens, UniProt P05186).
T2 sequence (P05186 whole entry): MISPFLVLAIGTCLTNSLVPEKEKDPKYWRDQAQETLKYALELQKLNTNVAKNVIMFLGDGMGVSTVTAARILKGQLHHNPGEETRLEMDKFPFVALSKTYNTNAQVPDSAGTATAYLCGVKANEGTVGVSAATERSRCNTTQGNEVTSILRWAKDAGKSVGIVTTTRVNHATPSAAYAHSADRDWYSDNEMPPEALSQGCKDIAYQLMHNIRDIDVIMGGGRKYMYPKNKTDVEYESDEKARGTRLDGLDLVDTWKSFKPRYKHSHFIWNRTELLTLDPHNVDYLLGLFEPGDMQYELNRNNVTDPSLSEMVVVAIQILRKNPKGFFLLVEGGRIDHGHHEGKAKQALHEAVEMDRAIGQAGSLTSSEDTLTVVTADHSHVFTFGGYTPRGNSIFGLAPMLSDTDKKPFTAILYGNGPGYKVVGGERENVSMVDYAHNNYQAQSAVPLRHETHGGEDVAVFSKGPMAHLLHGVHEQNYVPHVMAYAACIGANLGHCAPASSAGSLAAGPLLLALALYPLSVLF
The test can be described thus: TNAP enzyme activators, dose response, selectivity assay for mouse IAP activator project, biochemical, TNAP isozyme, mouse IAP uHTS hits (AID 488880). It counts as functional.

Test [5] addresses Estrogen receptor beta (Homo sapiens, UniProt Q92731). Description: ERβ–SRC-3 coactivator interaction inhibitors, confirmation, orthogonal assay, biochemical, ELISA, streptavidin-HRP readout (AID 1060).
Test [6] concerns the target Intestinal-type alkaline phosphatase (Mus musculus, UniProt P24822). Description: mouse intestinal alkaline phosphatase activators, dose response, biochemical, luminescence, uHTS hits (AID 488783). In kind it is functional.
Test [7] deals with Alkaline phosphatase, placental type (Homo sapiens, UniProt P05187). Description: PLAP enzyme inhibitors, confirmation, biochemical, luminescence (AID 1512). It counts as functional.
The target of test [8] is T2, Alkaline phosphatase, tissue-nonspecific isozyme. Description: human TNAP enzyme inhibitors, SAR follow-up, biochemical, luminescent, dose response (AID 1056).
The target in test [9] is T3, Bcl-2-like protein 10 (Homo sapiens, UniProt Q9HD36).
T3 sequence (Q9HD36 whole entry): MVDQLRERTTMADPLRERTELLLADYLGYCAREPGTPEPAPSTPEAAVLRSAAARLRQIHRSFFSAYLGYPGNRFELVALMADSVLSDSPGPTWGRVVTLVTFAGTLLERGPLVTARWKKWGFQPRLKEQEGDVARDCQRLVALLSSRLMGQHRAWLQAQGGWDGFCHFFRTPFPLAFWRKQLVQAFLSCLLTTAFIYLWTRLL
The test can be described thus: displacers of TR3 peptide from Bcl-B, primary screen, selectivity assay for Bfl-1 inhibitor project, biochemical, fluorescence polarization, FITC-TR3 peptide (AID 748).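 Note: fluorescence polarization from a fluorescein-labelled TR3 peptide binding purified Bcl-B.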 In general terms: In fluorescence polarisation assays a small probe gives low polarisation when free and higher when bound to something large.

In test [10] the target is Intestinal-type alkaline phosphatase (Homo sapiens, UniProt P09923). Description: activation of human intestinal alkaline phosphatase – biochemical, dose response (AID 488873). It counts as functional.
Test [11] deals with Jurkat. The test can be described thus: antigen receptor-induced NF-kB inhibitors, dose response, Jurkat, luciferase reporter, luminescence, B- and T-cell (AID 489004).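 Note: NF-kB luciferase reporter Jurkat cells stimulated with PMA plus ionomycin.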 In kind it is functional, cell-based. The conditions noted are these: Homo sapiens. For orientation: In a reporter assay the amount or activity of a reporter protein is the signal.
Test [12] is described as follows: cytotoxicity in HEK-293T NF-kB-Luc cells, dose response, cytotoxicity control for B/T-cell NF-kB inhibitor project, cell-based, uHTS hits (AID 489019).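 Note: IC50 reflects cytotoxicity as loss of cell viability.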 It counts as functional.
Test [13] deals with Nucleotide-binding oligomerization domain-containing protein 1 (Homo sapiens, UniProt Q9Y239). Description: NOD1 signaling inhibitors, SAR follow-up, revised (AID 2333). In kind it is functional.
Test [14] can be described thus: control 3'UTR Renilla luciferase suppression, dose response, counter-screen for Shn3 inhibitor project, cell-based, Clone20-Shn3RL, cherry-picked (AID 624133). In kind it is functional.
Test [15] is described as follows: Shn3 3'UTR reporter inhibitors, dose response, cell-based, Clone20 osteoblasts, firefly luciferase, cherry-picked (AID 624132).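 Note: firefly luciferase luminescence from reporter carrying the Shn3 3'UTR in osteoblasts.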 In kind it is functional.
Test [16] deals with HEK293. Description: NOD2 signaling inhibitors in MDP-stimulated cells, cell-based, uHTS, luminescence (AID 2001). In kind it is functional. The following applies: Homo sapiens.
Test [17] concerns HEK293. Description: NOD1 signaling inhibitors, primary screen, cell-based, luminescence, uHTS (AID 1578). It counts as functional. The conditions noted are these: Homo sapiens.
Test [18] deals with T4, Microphthalmia-associated transcription factor (Homo sapiens, UniProt O75030).
T4 sequence (O75030 whole entry): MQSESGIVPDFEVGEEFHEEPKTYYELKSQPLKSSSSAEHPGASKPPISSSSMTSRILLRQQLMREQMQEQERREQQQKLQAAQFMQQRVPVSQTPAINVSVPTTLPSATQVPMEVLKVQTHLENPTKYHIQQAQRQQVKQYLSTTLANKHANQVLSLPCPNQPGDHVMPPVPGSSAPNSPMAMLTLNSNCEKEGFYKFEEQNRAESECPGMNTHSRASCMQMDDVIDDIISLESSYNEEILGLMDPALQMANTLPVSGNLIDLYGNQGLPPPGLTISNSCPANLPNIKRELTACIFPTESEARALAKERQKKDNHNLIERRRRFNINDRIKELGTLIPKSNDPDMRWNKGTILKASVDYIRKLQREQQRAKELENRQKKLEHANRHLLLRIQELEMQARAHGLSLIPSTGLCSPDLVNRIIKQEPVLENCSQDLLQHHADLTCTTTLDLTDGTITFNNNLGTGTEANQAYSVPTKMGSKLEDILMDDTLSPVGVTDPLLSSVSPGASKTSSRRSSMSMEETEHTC
Description: TRPM1 promoter luciferase signal decrease, dose response, MITF inhibitor project, cell-based, SK-MEL-5, cherry-picked, set 3 (AID 493073).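 Note: SK-MEL-5 melanoma cells with luciferase driven by the MITF target TRPM1 promoter.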 It counts as functional.

The test system of test [19] is HEK293. Description: cells. In kind it is functional, cell-based. The following applies: Homo sapiens.
The target of test [20] is Tumor necrosis factor (Homo sapiens, UniProt P01375). The test can be described thus: TNFa-triggered NF-kB activation inhibitors, SAR follow-up, cell-based, revised (AID 2337). It counts as functional.
The target of test [21] is Nucleotide-binding oligomerization domain-containing protein 2 (Homo sapiens, UniProt Q9HC29). The test can be described thus: NOD2 signaling inhibitors, cell-based, luminescence, uHTS, HEK293 (AID 1566). In kind it is functional.
Test [22] deals with HEK293. The test can be described thus: cells. In kind it is functional, cell-based. The following applies: Homo sapiens. This is another data set of the same source.
Test [23] relates to HEK293. The test can be described thus: cells. The following applies: Homo sapiens. In kind it is functional, cell-based. The source holds these as a separate data set.
Test [24] can be described thus: HepG2 cell cytotoxicity, dose response, cytotoxicity control for Shn3 inhibitor project, CellTiter-Glo, cherry-picked (AID 624134). In kind it is functional, cell-based. On the technique in general: Cellular ATP, detected with luciferase, serves as a proxy for viable cell number.
Test [25] has as its system HEK293. Description: cells. The conditions noted are these: Homo sapiens.
For test [26], the target named is Lysine-specific demethylase 4C (Homo sapiens, UniProt Q9H3R0). Description: GASC-1 (JMJD2C) histone demethylase inhibitors, dose response, biochemical, DELFIA europium, cherry-picked samples (AID 488835). It counts as functional.
Test [27] deals with T5, SUMO-activating enzyme (Homo sapiens, UniProt Q9UBT2). Description: inhibitors of in vitro SUMOylation cascade, primary screen, biochemical, HTRF, uHTS (AID 2006). In kind it is protein-complex assay.
Test [28] concerns the target T6, Carboxy-terminal domain RNA polymerase II polypeptide A small phosphatase 1 (Homo sapiens, UniProt Q9GZU7).
T6 sequence (Q9GZU7 whole entry): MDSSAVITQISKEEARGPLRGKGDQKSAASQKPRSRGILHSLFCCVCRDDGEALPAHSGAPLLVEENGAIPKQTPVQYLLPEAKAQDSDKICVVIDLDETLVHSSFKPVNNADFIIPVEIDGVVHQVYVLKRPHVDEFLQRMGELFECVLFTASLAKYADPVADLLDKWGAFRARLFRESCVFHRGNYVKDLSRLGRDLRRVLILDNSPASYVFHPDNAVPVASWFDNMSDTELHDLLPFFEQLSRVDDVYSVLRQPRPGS
The test can be described thus: inhibitors of CTDSP1, concentration-response testing, biochemical assay, absorbance-based, actives from ultra-high-throughput screening (AID 540297). In kind it is functional.

The target of test [29] is SUMO E1/E2 (Homo sapiens, UniProt P63279+Q9UBE0+Q9UBT2). Description: SAR analysis of SUMOylation using HTRF in an in-Vitro dose response assay. [Related pubchem assays (depositor defined):AID2006, AID2011, AID2018, AID2069, AID2658]. It counts as functional.
Test [30] addresses T5, SUMO-activating enzyme. The test can be described thus: SUMOylation inhibitor hit validation, confirmation, SUMOylation inhibitor project, biochemical, AlphaScreen (AID 2018). It counts as functional.

T5 sequence (Q9UBE0 whole entry, the tested form may be a part): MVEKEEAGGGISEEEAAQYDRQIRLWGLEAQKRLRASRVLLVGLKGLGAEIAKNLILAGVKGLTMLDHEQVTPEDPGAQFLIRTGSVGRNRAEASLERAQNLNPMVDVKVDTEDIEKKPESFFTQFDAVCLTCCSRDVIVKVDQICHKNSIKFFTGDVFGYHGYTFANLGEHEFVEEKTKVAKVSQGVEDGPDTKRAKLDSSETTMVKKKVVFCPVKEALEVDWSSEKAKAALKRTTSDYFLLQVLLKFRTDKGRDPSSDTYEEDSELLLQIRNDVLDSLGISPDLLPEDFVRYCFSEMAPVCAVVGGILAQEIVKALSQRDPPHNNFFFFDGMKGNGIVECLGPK
T5 sequence (Q9UBT2 whole entry, the tested form may be a part): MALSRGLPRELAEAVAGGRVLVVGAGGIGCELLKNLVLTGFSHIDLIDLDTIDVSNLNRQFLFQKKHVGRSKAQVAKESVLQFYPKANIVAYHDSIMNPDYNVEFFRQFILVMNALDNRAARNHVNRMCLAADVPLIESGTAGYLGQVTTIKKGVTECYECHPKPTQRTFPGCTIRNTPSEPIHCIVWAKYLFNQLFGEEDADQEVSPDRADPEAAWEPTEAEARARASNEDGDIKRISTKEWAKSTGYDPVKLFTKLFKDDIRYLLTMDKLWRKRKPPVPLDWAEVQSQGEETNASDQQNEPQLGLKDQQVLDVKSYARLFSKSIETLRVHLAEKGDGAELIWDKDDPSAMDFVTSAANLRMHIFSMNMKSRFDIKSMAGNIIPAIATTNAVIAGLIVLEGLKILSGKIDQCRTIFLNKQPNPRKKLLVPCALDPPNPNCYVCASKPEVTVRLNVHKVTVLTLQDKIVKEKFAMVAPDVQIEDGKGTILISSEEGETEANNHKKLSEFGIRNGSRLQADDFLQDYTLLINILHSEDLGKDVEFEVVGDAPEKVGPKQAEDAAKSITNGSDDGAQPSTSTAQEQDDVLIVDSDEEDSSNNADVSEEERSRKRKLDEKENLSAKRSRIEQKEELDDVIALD
Sequence of Large T antigen (P03070 whole entry): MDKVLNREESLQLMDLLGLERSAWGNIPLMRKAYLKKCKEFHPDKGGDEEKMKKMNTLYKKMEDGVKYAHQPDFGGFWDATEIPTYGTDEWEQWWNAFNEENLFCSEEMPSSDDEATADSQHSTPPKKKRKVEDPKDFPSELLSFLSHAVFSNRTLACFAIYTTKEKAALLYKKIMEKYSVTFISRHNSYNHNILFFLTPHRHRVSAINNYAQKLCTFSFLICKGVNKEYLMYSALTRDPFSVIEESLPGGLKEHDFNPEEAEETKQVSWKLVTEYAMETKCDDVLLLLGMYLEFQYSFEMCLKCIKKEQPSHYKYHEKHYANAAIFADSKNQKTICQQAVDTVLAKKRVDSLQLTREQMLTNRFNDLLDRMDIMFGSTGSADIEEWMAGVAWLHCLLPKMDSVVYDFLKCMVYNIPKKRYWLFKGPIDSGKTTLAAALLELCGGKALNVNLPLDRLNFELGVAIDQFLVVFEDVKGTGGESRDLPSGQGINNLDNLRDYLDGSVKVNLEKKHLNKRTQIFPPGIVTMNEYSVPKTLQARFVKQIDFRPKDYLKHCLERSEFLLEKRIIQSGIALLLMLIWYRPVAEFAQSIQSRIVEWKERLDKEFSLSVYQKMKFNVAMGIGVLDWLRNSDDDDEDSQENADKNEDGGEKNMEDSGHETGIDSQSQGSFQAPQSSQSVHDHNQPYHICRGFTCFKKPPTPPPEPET
Sequence of Estrogen receptor beta (Q92731 whole entry): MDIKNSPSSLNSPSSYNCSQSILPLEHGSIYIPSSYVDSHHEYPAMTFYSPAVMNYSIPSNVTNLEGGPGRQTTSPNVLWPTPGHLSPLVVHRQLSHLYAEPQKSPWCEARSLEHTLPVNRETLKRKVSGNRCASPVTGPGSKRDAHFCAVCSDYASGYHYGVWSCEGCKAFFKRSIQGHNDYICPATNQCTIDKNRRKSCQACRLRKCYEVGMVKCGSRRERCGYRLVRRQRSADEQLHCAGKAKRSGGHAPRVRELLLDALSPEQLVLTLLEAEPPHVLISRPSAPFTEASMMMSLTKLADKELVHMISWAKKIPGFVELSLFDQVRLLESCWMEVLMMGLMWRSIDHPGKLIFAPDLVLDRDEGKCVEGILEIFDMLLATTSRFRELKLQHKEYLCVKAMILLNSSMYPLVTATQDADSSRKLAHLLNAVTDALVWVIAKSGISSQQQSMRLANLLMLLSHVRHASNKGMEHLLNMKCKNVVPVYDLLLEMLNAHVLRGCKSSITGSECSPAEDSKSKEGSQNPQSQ
Sequence of Lysine-specific demethylase 4C (Q9H3R0 whole entry): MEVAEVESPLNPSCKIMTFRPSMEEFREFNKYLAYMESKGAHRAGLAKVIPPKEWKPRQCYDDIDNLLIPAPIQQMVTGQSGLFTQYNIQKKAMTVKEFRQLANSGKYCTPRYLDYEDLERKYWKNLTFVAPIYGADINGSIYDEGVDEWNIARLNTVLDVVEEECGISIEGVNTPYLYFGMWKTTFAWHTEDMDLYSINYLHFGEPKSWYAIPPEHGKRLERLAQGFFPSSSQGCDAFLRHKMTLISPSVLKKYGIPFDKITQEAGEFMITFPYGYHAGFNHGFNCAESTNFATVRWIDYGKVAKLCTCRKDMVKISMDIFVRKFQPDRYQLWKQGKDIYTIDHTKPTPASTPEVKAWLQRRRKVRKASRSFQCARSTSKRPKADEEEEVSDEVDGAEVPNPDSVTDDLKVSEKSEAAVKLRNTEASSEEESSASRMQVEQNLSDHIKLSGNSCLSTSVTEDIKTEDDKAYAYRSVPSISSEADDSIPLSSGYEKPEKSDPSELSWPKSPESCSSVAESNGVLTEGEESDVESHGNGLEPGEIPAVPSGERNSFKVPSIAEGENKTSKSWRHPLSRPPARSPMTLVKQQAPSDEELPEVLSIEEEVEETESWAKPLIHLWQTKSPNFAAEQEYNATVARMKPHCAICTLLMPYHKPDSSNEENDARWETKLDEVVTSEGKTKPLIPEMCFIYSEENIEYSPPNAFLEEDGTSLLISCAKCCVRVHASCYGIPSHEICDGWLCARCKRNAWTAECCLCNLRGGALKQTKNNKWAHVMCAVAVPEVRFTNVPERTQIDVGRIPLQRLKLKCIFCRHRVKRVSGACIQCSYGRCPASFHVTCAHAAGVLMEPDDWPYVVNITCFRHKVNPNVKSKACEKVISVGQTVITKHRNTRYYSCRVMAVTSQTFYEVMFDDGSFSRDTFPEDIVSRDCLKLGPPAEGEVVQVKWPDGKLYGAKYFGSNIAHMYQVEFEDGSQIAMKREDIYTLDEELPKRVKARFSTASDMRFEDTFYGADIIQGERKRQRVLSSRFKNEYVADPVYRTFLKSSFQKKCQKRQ
Sequence of Tumor necrosis factor (P01375 whole entry, the tested form may be a part): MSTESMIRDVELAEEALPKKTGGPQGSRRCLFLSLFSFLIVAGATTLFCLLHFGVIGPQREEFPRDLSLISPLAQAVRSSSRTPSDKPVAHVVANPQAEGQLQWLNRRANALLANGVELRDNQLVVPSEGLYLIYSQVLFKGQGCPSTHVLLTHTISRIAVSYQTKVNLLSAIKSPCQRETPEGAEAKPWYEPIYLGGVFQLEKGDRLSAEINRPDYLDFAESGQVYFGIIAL
Sequence of Intestinal-type alkaline phosphatase (Homo sapiens, UniProt P09923) (P09923 whole entry): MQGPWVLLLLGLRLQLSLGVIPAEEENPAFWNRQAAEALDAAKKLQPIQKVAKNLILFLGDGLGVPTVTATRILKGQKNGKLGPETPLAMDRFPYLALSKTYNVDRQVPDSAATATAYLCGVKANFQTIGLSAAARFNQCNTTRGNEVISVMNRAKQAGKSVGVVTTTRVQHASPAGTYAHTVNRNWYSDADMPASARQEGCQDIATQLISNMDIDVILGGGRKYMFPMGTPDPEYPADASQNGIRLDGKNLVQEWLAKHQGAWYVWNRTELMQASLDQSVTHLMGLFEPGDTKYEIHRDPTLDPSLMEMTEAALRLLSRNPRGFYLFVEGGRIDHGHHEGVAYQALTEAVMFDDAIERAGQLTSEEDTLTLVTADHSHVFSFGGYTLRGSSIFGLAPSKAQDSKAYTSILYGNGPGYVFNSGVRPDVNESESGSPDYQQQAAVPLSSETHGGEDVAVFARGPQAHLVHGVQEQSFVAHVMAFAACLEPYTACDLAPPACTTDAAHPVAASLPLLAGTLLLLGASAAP
Sequence of Nucleotide-binding oligomerization domain-containing protein 1 (Q9Y239 whole entry, the tested form may be a part): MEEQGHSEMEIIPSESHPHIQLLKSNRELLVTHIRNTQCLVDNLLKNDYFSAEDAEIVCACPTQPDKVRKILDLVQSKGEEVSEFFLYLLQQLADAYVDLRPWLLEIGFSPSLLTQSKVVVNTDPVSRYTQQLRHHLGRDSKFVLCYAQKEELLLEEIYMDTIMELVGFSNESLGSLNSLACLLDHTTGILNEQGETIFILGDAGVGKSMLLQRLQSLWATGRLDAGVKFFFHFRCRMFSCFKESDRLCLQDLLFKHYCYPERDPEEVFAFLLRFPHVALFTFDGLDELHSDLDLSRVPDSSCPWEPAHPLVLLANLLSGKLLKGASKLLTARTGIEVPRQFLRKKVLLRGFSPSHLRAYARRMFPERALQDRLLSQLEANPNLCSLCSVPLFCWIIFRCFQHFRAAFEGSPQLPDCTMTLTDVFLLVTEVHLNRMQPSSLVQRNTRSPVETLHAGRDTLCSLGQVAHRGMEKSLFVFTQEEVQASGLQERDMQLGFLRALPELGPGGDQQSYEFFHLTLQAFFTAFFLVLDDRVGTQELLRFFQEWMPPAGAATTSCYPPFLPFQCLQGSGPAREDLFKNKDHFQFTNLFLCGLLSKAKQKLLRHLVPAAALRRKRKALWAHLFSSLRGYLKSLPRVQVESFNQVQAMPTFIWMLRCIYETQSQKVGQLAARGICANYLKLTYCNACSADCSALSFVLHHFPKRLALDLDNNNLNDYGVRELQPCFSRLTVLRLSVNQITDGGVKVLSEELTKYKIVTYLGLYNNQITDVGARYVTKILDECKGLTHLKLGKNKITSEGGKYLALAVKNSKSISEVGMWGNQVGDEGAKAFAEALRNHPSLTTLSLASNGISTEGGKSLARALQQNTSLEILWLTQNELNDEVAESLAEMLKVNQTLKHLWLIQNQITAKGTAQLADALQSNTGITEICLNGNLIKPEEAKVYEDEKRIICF

What is called IC50 is the concentration that gives 50% inhibition. What is called EC50 is the midpoint of the concentration-response curve. For `O=C(CSc1nnc(-c2ccccc2)[nH]1)c1ccc(O)c(O)c1`, the IC50 in test [1] was > 100 µM (not active); in [2], 8.31 µM (active); in test [3] it was 15.2 µM (active); in test [5] it was 15.6 µM (not active); in test [7], 11.4 µM (active); in test [8], 5.9 µM (active). Moreover, in test [9], the IC50 is 31.5 µM (active). Moreover, the figures for the EC50 in test [4], in test [6] and in test [10] were 36.4 µM (active), 63.4 µM (active) and 42.4 µM (active), respectively.
As to `CC(C)Cc1cc(C(C)(C)C)ccc1OC(=S)N(C)C`, the IC50 in test [11] and in test [12] was > 80 µM (inactive) throughout.
A word on the AC50: it is the concentration giving half of the maximal activity seen. Consider `CCOC(=O)N1CCN(C(=O)c2ccc(Cn3c(=S)[nH]c4ccc(Br)cc4c3=O)cc2)CC1`, for which the IC50 in test [13] was 4.77 µM (active); in test [16], 6.26 µM (active); in test [19], > 20 µM (inactive); in test [20] it was 4.69 µM (active); in [22], 9.03 µM (active); in test [23] it was > 20 µM (inactive). Also, the IC50 in [25] is 18.7 µM (active). The AC50 in test [14] was 0.793 µM (active); in [15] it was 1.25 µM (active); in test [18] it was 3.52 µM (active); in [24], > 70 µM (inactive). The results for the EC50 in test [17] and in [21] were 4.23 µM (active) and 4.18 µM (active), respectively.
As to `O=C1NC(=O)C(C(CC(=O)c2ccccc2)c2ccccc2)C(=O)N1` (stereo not given), the AC50 in test [26] was 7.62 µM (active).
`O=C(N=Nc1c(O)[nH]c2ccc([N+](=O)[O-])cc12)c1ccccc1Cl`: the IC50 in test [27] was 20.4 µM (active); in test [28] it was 6.44 µM (active); in test [29] it was 94.4 µM (active); in test [30], 7.02 µM (active).
